What was measured:
Type in all cases: in vivo
Alopecurus myosuroides [1] = assay: Post-emergence herbicidal effect; details: 320 g/ha, assessed visually after about 3 weeks vs untreated controls
How it was run: (§1)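 Action, expressed in percent from 0 (like controls) to 100 (plants died), is read by eye about 3 weeks after foliar application. Applications use formulated product in water at 600–800 L/ha on one-leaf-stage plants sown in sandy loam.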

Lolium multiflorum [2] = assay: Post-emergence herbicidal effect; details: 320 g/ha, assessed visually after about 3 weeks vs untreated controls
How it was run: as §1

Abutilon theophrasti [3] = assay: Post-emergence herbicidal effect; details: 320 g/ha, assessed visually after about 3 weeks vs untreated controls
How it was run: as §1

Matricaria inodora [4] = assay: Post-emergence herbicidal effect; details: 320 g/ha, assessed visually after about 3 weeks vs untreated controls
How it was run: as §1

Echinochloa crus-galli [5] = assay: Post-emergence herbicidal effect; details: assessed visually after about 3 weeks vs untreated controls
How it was run: as §1

Viola tricolor [6] = assay: Post-emergence herbicidal effect; details: assessed visually after about 3 weeks vs untreated controls
How it was run: as §1

Veronica persica [7] = assay: Post-emergence herbicidal effect; details: assessed visually after about 3 weeks vs untreated controls
How it was run: as §1

Stellaria media [8] = assay: Post-emergence herbicidal effect; details: 320 g/ha, assessed visually after about 3 weeks vs untreated controls
How it was run: as §1

Amaranthus retroflexus [9] = assay: Post-emergence herbicidal effect; details: assessed visually after about 3 weeks vs untreated controls
How it was run: as §1

Abutilon theophrasti [10] = assay: Pre-emergence herbicidal effect; details: scored visually after 3 weeks
How it was run: (§2)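 Herbicidal activity (%) is a visual rating made 3 weeks after treatment by comparison with untreated controls, where 0% equals control plants and 100% means the plants died. Application went onto the soil covering sown seeds before emergence.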

Matricaria inodora [11] = assay: Pre-emergence herbicidal effect; details: scored visually after 3 weeks
How it was run: as §2

Polygonum convolvulus [12] = assay: Pre-emergence herbicidal effect; details: scored visually after 3 weeks
How it was run: as §2

Echinochloa crus-galli [13] = assay: Pre-emergence herbicidal effect; details: scored visually after 3 weeks
How it was run: as §2

Viola tricolor [14] = assay: Pre-emergence herbicidal effect; details: scored visually after 3 weeks
How it was run: as §2

Veronica persica [15] = assay: Pre-emergence herbicidal effect; details: scored visually after 3 weeks
How it was run: as §2

Setaria viridis = assay: Pre-emergence herbicidal effect; details: scored visually after 3 weeks
How it was run: as §2

Stellaria media [16] = assay: Pre-emergence herbicidal effect; details: scored visually after 3 weeks
How it was run: as §2

Amaranthus retroflexus [17] = assay: Pre-emergence herbicidal effect; details: scored visually after 3 weeks
How it was run: as §2

Ipomoea purpurea = assay: Post-emergence herbicidal effect; details: 320 g/ha, assessed visually after about 3 weeks vs untreated controls
How it was run: as §1

Polygonum convolvulus [18] = assay: Post-emergence herbicidal effect; details: 320 g/ha, assessed visually after about 3 weeks vs untreated controls
How it was run: as §1

Alopecurus myosuroides [19] = assay: Pre-emergence herbicidal effect; details: Dosage 320 g/ha, scored visually after 3 weeks
How it was run: as §2

Lolium multiflorum [20] = assay: Pre-emergence herbicidal effect; details: Dosage 320 g/ha, scored visually after 3 weeks
How it was run: as §2

Cc1cc2c(s1)CCCC2Nc1ncc2c(n1)CCCC2=O (racemic) [compound 9]
post-emergence efficacy ALOMY (Alopecurus myosuroides [1]): 80% | post-emergence efficacy LOLMU (Lolium multiflorum [2]): 80% | post-emergence efficacy ABUTH (Abutilon theophrasti [3]): 80% | post-emergence efficacy MATIN (Matricaria inodora [4]): 80% | post-emergence efficacy ECHCG (Echinochloa crus-galli [5]; 80 g/ha): 80% | post-emergence efficacy ECHCG (Echinochloa crus-galli [5]; 320 g/ha): 100% | post-emergence efficacy VIOTR (Viola tricolor [6]; 80 g/ha): 80% | post-emergence efficacy VIOTR (Viola tricolor [6]; 320 g/ha): 90% | post-emergence efficacy VERPE (Veronica persica [7]; 80 g/ha): 80% | post-emergence efficacy VERPE (Veronica persica [7]; 320 g/ha): 90% | post-emergence efficacy STEME (Stellaria media [8]): 90% | post-emergence efficacy AMARE (Amaranthus retroflexus [9]; 80 g/ha): 80% | post-emergence efficacy AMARE (Amaranthus retroflexus [9]; 320 g/ha): 90% | ABUTH pre-emergence efficacy (herbicidal activity) (Abutilon theophrasti [10]; Dosage 80 g/ha): 100% | ABUTH pre-emergence efficacy (herbicidal activity) (Abutilon theophrasti [10]; Dosage 320 g/ha): 100% | MATIN pre-emergence efficacy (herbicidal activity) (Matricaria inodora [11]; Dosage 80 g/ha): 100% | MATIN pre-emergence efficacy (herbicidal activity) (Matricaria inodora [11]; Dosage 320 g/ha): 100% | POLCO pre-emergence efficacy (herbicidal activity) (Polygonum convolvulus [12]; Dosage 80 g/ha): 100% | POLCO pre-emergence efficacy (herbicidal activity) (Polygonum convolvulus [12]; Dosage 320 g/ha): 100% | ECHCG pre-emergence efficacy (herbicidal activity) (Echinochloa crus-galli [13]; Dosage 80 g/ha): 100% | ECHCG pre-emergence efficacy (herbicidal activity) (Echinochloa crus-galli [13]; Dosage 320 g/ha): 100% | VIOTR pre-emergence efficacy (herbicidal activity) (Viola tricolor [14]; Dosage 80 g/ha): 90% | VIOTR pre-emergence efficacy (herbicidal activity) (Viola tricolor [14]; Dosage 320 g/ha): 100% | VERPE pre-emergence efficacy (herbicidal activity) (Veronica persica [15]; Dosage 80 g/ha): 100% | VERPE pre-emergence efficacy (herbicidal activity) (Veronica persica [15]; Dosage 320 g/ha): 100% | SETVI pre-emergence efficacy (herbicidal activity) (Setaria viridis; Dosage 80 g/ha): 80% | SETVI pre-emergence efficacy (herbicidal activity) (Setaria viridis; Dosage 320 g/ha): 100% | STEME pre-emergence efficacy (herbicidal activity) (Stellaria media [16]; Dosage 80 g/ha): 100% | STEME pre-emergence efficacy (herbicidal activity) (Stellaria media [16]; Dosage 320 g/ha): 100% | AMARE pre-emergence efficacy (herbicidal activity) (Amaranthus retroflexus [17]; Dosage 80 g/ha): 100% | AMARE pre-emergence efficacy (herbicidal activity) (Amaranthus retroflexus [17]; Dosage 320 g/ha): 100%

C/C(=N\OC(C)C)c1cnc(NC2CCCc3sc(C)cc32)nc1N (racemic) [compound 288]
post-emergence efficacy PHBPU (Ipomoea purpurea): 70% | post-emergence efficacy ALOMY (Alopecurus myosuroides [1]): 70% | post-emergence efficacy LOLMU (Lolium multiflorum [2]): 60% | post-emergence efficacy ABUTH (Abutilon theophrasti [3]): 90% | post-emergence efficacy MATIN (Matricaria inodora [4]): 90% | post-emergence efficacy POLCO (Polygonum convolvulus [18]): 70% | post-emergence efficacy VIOTR (Viola tricolor [6]; 80 g/ha): 70% | post-emergence efficacy VIOTR (Viola tricolor [6]; 320 g/ha): 90% | post-emergence efficacy VERPE (Veronica persica [7]; 320 g/ha): 100% | post-emergence efficacy STEME (Stellaria media [8]): 80% | post-emergence efficacy AMARE (Amaranthus retroflexus [9]; 320 g/ha): 90% | ALOMY pre-emergence efficacy (herbicidal activity) (Alopecurus myosuroides [19]): 80% | LOLMU pre-emergence efficacy (herbicidal activity) (Lolium multiflorum [20]): 100% | ABUTH pre-emergence efficacy (herbicidal activity) (Abutilon theophrasti [10]; Dosage 320 g/ha): 70% | MATIN pre-emergence efficacy (herbicidal activity) (Matricaria inodora [11]; Dosage 80 g/ha): 100% | MATIN pre-emergence efficacy (herbicidal activity) (Matricaria inodora [11]; Dosage 320 g/ha): 100% | POLCO pre-emergence efficacy (herbicidal activity) (Polygonum convolvulus [12]; Dosage 80 g/ha): 80% | POLCO pre-emergence efficacy (herbicidal activity) (Polygonum convolvulus [12]; Dosage 320 g/ha): 100% | ECHCG pre-emergence efficacy (herbicidal activity) (Echinochloa crus-galli [13]; Dosage 320 g/ha): 100% | VIOTR pre-emergence efficacy (herbicidal activity) (Viola tricolor [14]; Dosage 80 g/ha): 70% | VIOTR pre-emergence efficacy (herbicidal activity) (Viola tricolor [14]; Dosage 320 g/ha): 100% | VERPE pre-emergence efficacy (herbicidal activity) (Veronica persica [15]; Dosage 80 g/ha): 100% | VERPE pre-emergence efficacy (herbicidal activity) (Veronica persica [15]; Dosage 320 g/ha): 100% | SETVI pre-emergence efficacy (herbicidal activity) (Setaria viridis; Dosage 320 g/ha): 100% | STEME pre-emergence efficacy (herbicidal activity) (Stellaria media [16]; Dosage 80 g/ha): 100% | STEME pre-emergence efficacy (herbicidal activity) (Stellaria media [16]; Dosage 320 g/ha): 100% | AMARE pre-emergence efficacy (herbicidal activity) (Amaranthus retroflexus [17]; Dosage 320 g/ha): 100%
